# In patent US4663309A, “Novel peptide hormones with calcitonin-like activity” (University Patents, Inc., priority 1985, dated 1987):
# Entries after “also recorded” stand apart in the source; their conditions may differ. Bridge positions count the residues as written; N and C are the ends. Peptide text beside a SMILES is read from it.
# Assays:
# [1] = target: T1, calcitonin receptors (brain particulate fraction) (Rattus norvegicus, UniProt P32214)
# T1 sequence (P32214 25-516): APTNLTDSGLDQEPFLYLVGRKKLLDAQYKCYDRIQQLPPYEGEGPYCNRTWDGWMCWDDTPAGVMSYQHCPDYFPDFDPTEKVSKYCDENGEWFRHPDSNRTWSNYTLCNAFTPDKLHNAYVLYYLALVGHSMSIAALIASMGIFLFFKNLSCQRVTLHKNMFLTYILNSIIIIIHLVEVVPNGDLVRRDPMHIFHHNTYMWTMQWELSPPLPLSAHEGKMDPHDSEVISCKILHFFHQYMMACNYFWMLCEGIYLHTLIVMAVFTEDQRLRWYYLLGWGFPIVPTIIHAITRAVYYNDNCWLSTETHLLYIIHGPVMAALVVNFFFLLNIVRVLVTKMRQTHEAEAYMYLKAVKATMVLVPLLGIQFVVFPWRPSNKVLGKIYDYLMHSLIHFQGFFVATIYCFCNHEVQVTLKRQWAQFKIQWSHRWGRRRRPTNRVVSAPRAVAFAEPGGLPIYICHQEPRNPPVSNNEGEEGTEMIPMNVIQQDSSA
# male Sprague-Dawley rats = test: In vivo hypocalcemic rat bioassay (Example 6)
# [2] = system: rat kidney adenylate cyclase; test: Peptide stimulation of adenylate cyclase activity in crude kidney cortical membranes; format: biochemical; conditions: 10 min at 37° C.
# Method: Crude rats brain membranes were prepared as described by Nakamuta et al., supra, using 250-300 gm male Sprague-Dawley rats (Charles River Breeding Laboratories). Membranes were either used immediately or stored at -80° C. for no more than three days. Crude rat kidney membranes used for binding studies and adenylate cyclase assays were prepared as described by Schwartz, K. E., R. C. Orlowski and R. Marcus, Endocrinology 108:831 (1981) with a minor modification. The dissected kidney cortices were first homogenized briefly with a Polytron™ (Brinkman Instruments) at low speed ("5") before complete homogenization with a loose-fitting Wheaton Dounce homogenizer (American Scientific Products, MacGaw Park, IL, pestle "B"). Protein concentrations were determined using Coomassie Brilliant Blue G-250 (Sedmak, J. J. and S. E. Grossberg, Anal. Biochem. 83:544 (1977)) and crystallized BSA (Sigma Chemical Co., St. Louis, MO) as the standard. All preparations of kidney membranes were carried out at 4° C. and the membranes were used immediately for binding studies or adenylate cyclase assays.
# Peptide stimulation of adenylate cyclase activity in crude kidney cortical membranes was measured using methods described by Marcus, R. and G. D. Aurbach, Biochim. Biophys. Acta 242:410 (1971). […]
IC50 [1] [nM],SMILES,"Activity relative to PCT (male Sprague-Dawley rats; hypocalcemic response in rats, b98 covers in vitro and in vivo activity)","In vivo potency relative to SCT-I (fold less potent) (male Sprague-Dawley rats; subcutaneous, plasma calcium 1 hour after injection)",Stimulation of adenylate cyclase over basal activity [2]
17,CC(C)C[C@@H]1NC(=O)[C@H](CC(N)=O)NC(=O)CNC(=O)[C@@H](N)CSSC[C@@H](C(=O)N[C@@H](CC(C)C)C(=O)N[C@@H](CC(C)C)C(=O)N[C@@H](CCC(N)=O)C(=O)N[C@@H](CCC(N)=O)C(=O)N[C@@H](Cc2c[nH]c3ccccc23)C(=O)N[C@@H](CCC(N)=O)C(=O)N[C@@H](CCCCN)C(=O)N[C@@H](CC(C)C)C(=O)N[C@@H](CC(C)C)C(=O)N[C@@H](CCC(N)=O)C(=O)N[C@@H](CCCCN)C(=O)N[C@@H](CC(C)C)C(=O)N[C@@H](CCCCN)C(=O)N[C@@H](CCC(N)=O)C(=O)N[C@@H](CC(C)C)C(=O)N2CCC[C@H]2C(=O)N[C@@H](CCCNC(=N)N)C(=O)N[C@H](C(=O)N[C@@H](CC(N)=O)C(=O)N[C@H](C(=O)NCC(=O)N[C@@H](CO)C(=O)NCC(=O)N[C@H](C(=O)N2CCC[C@H]2C(N)=O)[C@@H](C)O)[C@@H](C)O)[C@@H](C)O)NC(=O)[C@H]([C@@H](C)O)NC(=O)[C@H](CO)NC1=O [MCT-I] (H-CGNLSTCLLQQWQKLLQKLKQLPRTNTGSGTP-NH2; disulfide 1-7),approximately as active as PCT; also recorded: equivalent to that of PCT,about 10 fold,
,CC(C)C[C@H](NC(=O)[C@H](CCCCN)NC(=O)[C@H](CCC(N)=O)NC(=O)[C@H](CC(C)C)NC(=O)[C@H](CCC(N)=O)NC(=O)[C@H](CCC(N)=O)NC(=O)[C@H](CC(C)C)NC(=O)[C@H](CC(C)C)NC(=O)[C@@H]1CSSC[C@H](N)C(=O)N[C@@H](CO)C(=O)N[C@@H](CC(N)=O)C(=O)N[C@@H](CC(C)C)C(=O)N[C@@H](CO)C(=O)N[C@@H]([C@@H](C)O)C(=O)N1)C(=O)N[C@@H](CC(C)C)C(=O)N[C@@H](CCC(N)=O)C(=O)N[C@@H](CCCCN)C(=O)N[C@@H](CC(C)C)C(=O)N[C@@H](CCCCN)C(=O)N[C@@H](CCC(N)=O)C(=O)N[C@@H](Cc1ccc(O)cc1)C(=O)N1CCC[C@H]1C(=O)N[C@@H](CCCNC(=N)N)C(=O)N[C@H](C(=O)N[C@@H](CC(N)=O)C(=O)N[C@H](C(=O)NCC(=O)N[C@@H](CO)C(=O)NCC(=O)N[C@H](C(=O)N1CCC[C@H]1C(N)=O)[C@@H](C)O)[C@@H](C)O)[C@@H](C)O [MCT-II] (H-CSNLSTCLLQQLQKLLQKLKQYPRTNTGSGTP-NH2; disulfide 1-7; N-terminus assumed),,,stimulated adenylate cyclase over basal activity
